{"source": "patent US7067500B2", "about": "“Betaines as adjuvants to susceptibility testing and antimicrobial therapy” (priority 1997, dated 2006)", "system": "M. tuberculosis isolates (Table 8)", "assay": "MTB isolates vs. antibiotic screen in the presence and absence of CB-18", "details": "CB-18 17 μg/ml", "note": "Entries after “also recorded” stand apart in the source; their conditions may differ. Structures can show the parent of a compound that is named as a salt.", "data": [{"molecule": "CCCCCCCCCCCCCCCCCC[N+](C)(C)CCCC(=O)[O-]", "note": "[CB-18, N-(3-carboxypropyl)-N,N-dimethyl-1-octadecanaminium, inner salt]", "values": [{"measurement": "CB-18 induced sensitivity to antibiotics tested", "setting": "061-TBR (INH resistant)", "value": "exacerbated in the presence of CB-18; also recorded: Minor, if any, CB-18 induced sensitivity to"}, {"measurement": "CB-18 induced sensitivity to antibiotics tested", "setting": "896-BAL (multi drug resistant: INH, RIF & PZA)", "value": "Minimal, if any, CB-18 induced sensitivity to"}]}]}
